System: Plasmodium falciparum
Assay: GSK_TCMDC: Inhibition of Plasmodium falciparum 3D7 in whole erythrocytes, using parasite LDH activity as an index of growth.
Type: functional, organism-based
Conditions: Plasmodium falciparum, 3D7

Compound | XC50
CC(=O)Nc1ccc(C(=O)Nc2cccc(-c3ccc(-c4nc5cc(C(F)(F)F)ccc5[nH]4)s3)c2)cn1 | 126 nM
CN1CCN(c2ccc(Nc3c4ccccc4nc4ccccc34)cc2)CC1 | 645 nM
Cc1cc2c(cc1C(F)(F)F)N(C(=O)Nc1cccc(C(=O)NC3CCN(Cc4ccccc4)CC3)c1)CC2 | 912 nM
O=C(N[C@@H](Cc1ccccc1)[C@H](O)CNCCC(F)(F)F)c1cccc(CCC2CC2)c1 | 1020 nM
CNC(=O)C1Cc2c([nH]c3cc(Br)ccc23)C2(CCN(CCc3ccccc3)CC2)N1 (centres undefined) | 721 nM
Cc1cc(C)c2ncc(C(=O)O)c(O)c2c1 | 878 nM
COc1cc(CCNc2nc(NCc3cccc4ccccc34)nc(N3CCC(N)CC3)n2)ccc1O | 787 nM
Cc1ccc(-c2nc(Nc3ccncc3)c3ccccc3n2)s1 | 830 nM
CCC1(CC)N=C(N)N=C(N)C1c1ccc(Cl)c(Cl)c1 (centres undefined) | 380 nM
Cc1c(NC(=O)COc2ccc(Cl)cc2C(=O)c2cc(F)cc(C(F)(F)F)c2)ccc2ncsc12 | 1020 nM
Cc1cc(=NN=Cc2ccc(Cl)cc2)c2cc(F)ccc2[nH]1 | 828 nM
O=C(Nc1cccc(C(F)(F)F)c1)Nc1ccc(Cl)c(Cl)c1 | 735 nM
COc1cc2nc(C)nc(Nc3ccc4c(ccn4Cc4ccccc4)c3)c2cc1OC | 556 nM
O=C(NCc1cccc2ccccc12)C1CCCN(C(=O)c2ccc(O)c(-c3ccc(Cl)c(Cl)c3)c2)C1 (centres undefined) | 1030 nM
CCOc1ccc(N2CCN(CCCCNC(=O)c3ccc(NC(=O)c4ccc(Cl)cc4)cc3)CC2)c(OCC)c1 | 567 nM
COc1ccc2[nH]c(C)cc(=NN=Cc3ccncc3)c2c1 | 697 nM
Cn1cncc1-c1ccc2ncnc(Nc3ccc(OCc4ccccc4)cc3)c2c1 | 1340 nM
O=C(Nc1ccc(Cl)c(Cl)c1)Nc1ccc2nccc(N3CCN(Cc4ccccc4)CC3)c2c1 | 158 nM
CCN(CC)Cc1ccc2c(=O)cc(CCc3cccc(F)c3F)n(CC(=O)N(Cc3ccc(-c4ccc(C(F)(F)F)cc4)cc3)C(C)C)c2c1 | 782 nM
COc1ccc2nccc(CCN3CC(O)C(CNCc4ccc5c(n4)NC(=O)CS5)C3)c2n1 (centres undefined) | 1460 nM

Compound | XC50
O=C(/C=C/c1ccc(Cl)c(Cl)c1)N1CCC(CN2CCC(c3c[nH]c4ccncc34)CC2)CC1 | 733 nM
CN1CCCN(c2ccnc3cc4c(cc23)N(C(=O)c2ccccc2Cl)CC4)CC1 | 1180 nM
COCCCC1C(=O)OC2CCCC21 (centres undefined) | 699 nM
Cc1cc(N/N=C/c2cccc([N+](=O)[O-])c2)c2cc(F)ccc2n1 | 595 nM
CN(C)CCNC(=O)[C@H](CC1CCCCC1)NC(=O)c1ccc(O)c(-c2ccc(Cl)c(Cl)c2)c1 | 775 nM
Cc1cccc(-n2c(Nc3ccc(C)c(Cl)c3)nc3ccc(S(=O)(=O)NC(C)C(C)C)cc32)c1 (centres undefined) | 648 nM
Cc1ccc2c(=O)c3cc(C)ccc3[nH]c2c1 | 424 nM
Cc1nn(CC(O)Cn2c3ccc(Br)cc3c3cc(Br)ccc32)c(C)c1Br (centres undefined) | 713 nM
CS(=O)(=O)c1ccc(CCNCc2ccc(-c3ccc(CN(C(=O)C4CCCC4)C4CCN(Cc5ccccc5)CC4)cc3)nc2)cc1 | 832 nM
CN(C)CCOc1ccc(NC(=O)Nc2ccnc3c(Br)cccc23)cc1Cl | 842 nM
O=C(Nc1ccc(CCN2CCC(c3nc(COCC(F)(F)F)c(-c4ccccc4)o3)CC2)cc1)c1ccc(F)cc1 | 1970 nM
CCOc1cc(OCC)c2ccccc2c1CNCCCCCCNCc1c(OCC)cc(OCC)c2ccccc12 | 305 nM
Cc1cc(N(C)C)nc(Nc2ccc(NC(=O)c3ccc(Br)o3)cc2)n1 | 1050 nM
CC(C)(NCc1ccc(OC(F)(F)F)cc1)c1nc(-c2ccc(Cl)c(O)c2)c(-c2ccncc2)[nH]1 | 940 nM
O=C(/C=C/c1ccc(Cl)c(Cl)c1)N1CCN(C(=O)Nc2ccc(C(F)(F)F)cc2)CC1 | 666 nM
COc1cc2c(c(Cl)c1OC)CCN(Cc1ccccc1)CC2c1ccc(NC(=O)C(F)(F)F)cc1 (centres undefined) | 924 nM
O=[N+]([O-])c1cccc(CNCC2CCN(CCc3ccccc3)CC2)c1 | 785 nM
Cc1cc(N[C@@H](Cc2ccccc2)C(=O)NCc2cccc(F)c2)nc(NCCc2ccc(F)cc2)n1 | 649 nM
COc1ccc(-c2cccc(NC(=O)c3cccc(Cl)c3)c2)cc1CN1CCCN(C)CC1 | 231 nM
